The results in this text go back to ChEMBL document CHEMBL5154725, “SAR evolution towards potent C-terminal carboxamide peptide inhibitors of Zika virus NS2B-NS3 protease” (Bioorg Med Chem, 2022).

Structures are written as SMILES. Non-standard residues stand in square brackets, D forms with d. Residues, ends and D or L forms follow the SMILES beside them. *: point of attachment. Phe(4-CH2NH2) = NCc1ccc(C[C@H](N)C(=O)O)cc1; Phe(4-NH2) = Nc1ccc(C[C@H](N)C(=O)O)cc1; Aad = N[C@@H](CCCC(=O)O)C(=O)O; Cit = NC(=O)NCCC[C@H](N)C(=O)O; NHPhenethyl = c1ccc(CCN*)cc1; Orn = NCCC[C@H](N)C(=O)O; Dab = NCC[C@H](N)C(=O)O; PhAc = O=C(Cc1ccccc1)*; NHBn = c1ccc(CN*)cc1 Where only a bound is given, the exact number is not on record here.

The nature of assay [1]: (§1) Inhibition of 6-His tagged-G4SG4 fused ZIKV NS2B (49 to 95 residues) R95A mutant-NS3 (1 to 170 residue) R29G mutant expressed in Escherichia coli BL21 (DE3) using Bz-Nle-K-RR-AMC substrate preincubated for 10 mins followed by substrate addition and measured after 30 mins by fluorescence assay. Details: species or system Zika virus.
Assay [2] has as its system Zika virus. Described as §1. The conditions noted are these: time 40.0 min.
The subject of assay [3] is Zika virus. Kind of assay: Inhibition of 6-His tagged-G4SG4 fused ZIKV NS2B (49 to 95 residues) R95A mutant-NS3 (1 to 170 residue) R29G mutant expressed in Escherichia coli BL21 (DE3) using Bz-Nle-K-RR-AMC substrate at 50 uM preincubated for 10 mins followed by substrate addition and measured after 30 mins by fluorescence assay relative to control. The conditions noted are these: time 40.0 min.

Assay [4] has as its system Zika virus. The experiment in a line: Inhibition of 6-His tagged-G4SG4 fused ZIKV NS2B (49 to 95 residues) R95A mutant-NS3 (1 to 170 residue) R29G mutant expressed in Escherichia coli BL21 (DE3) using Bz-Nle-K-RR-AMC substrate at 100 uM preincubated for 10 mins followed by substrate addition and measured after 30 mins by fluorescence assay relative to control. The conditions noted are these: time 40.0 min.

Broadly, the IC50 is the concentration that inhibits the measured activity by half. Read a high IC50 as lower potency. For orientation: Ki means a measure of affinity in units of concentration, obtained from inhibition or displacement. For orientation: IC10 means the concentration needed for an effect of 10%. The IC80 is the point of the concentration-response curve where the effect stands at 80%. A lower IC80 goes with an effect from little substance. In assay [1], `N=C(N)NCCC[C@H](NC(=O)[C@H](CCCCN)NC(=O)[C@H](CCCCN)NC(=O)Cc1ccccc1)C(N)=O` (PhAc-Lys-Lys-Arg-NH2) came in with an IC50 of 3 µM and a Ki of 2.4 µM. In the assay on Zika virus [2], this compound returned an IC10 of 0.3 µM and an IC80 of 10 µM.
One may read the inhibition as the change of the read-out against control, counted positive when it falls. On to `N=C(N)NCCC[C@H](NC(=O)[C@H](CCCCN)NC(=O)[C@H](CCCC(N)=O)NC(=O)Cc1ccccc1)C(N)=O` (PhAc-[Aad](NH2)-Lys-Arg-NH2), for which the inhibition in the assay on Zika virus [3] amounted to 40%.
In the assay on Zika virus [4], `N=C(N)NCCC[C@H](NC(=O)[C@H](CCCCN)NC(=O)CNC(=O)Cc1ccccc1)C(N)=O` (PhAc-Gly-Lys-Arg-NH2) came in with an inhibition of 40%.
As for `C[C@H](NC(=O)[C@H](CCCNC(=N)N)NC(=O)[C@H](CCCCN)NC(=O)[C@H](CCCCN)NC(=O)Cc1ccccc1)c1ccccc1`, the inhibition in the assay with Zika virus [3] is 50%.
For `N=C(N)NCCC[C@H](NC(=O)[C@H](Cc1ccc(CN)cc1)NC(=O)[C@H](CCCCN)NC(=O)Cc1ccccc1)C(N)=O` (PhAc-Lys-[Phe(4-CH2NH2)]-Arg-NH2), the inhibition in the assay with Zika virus [4] was 66%.
Regarding `N=C(N)NCCC[C@H](NC(=O)c1cccs1)C(=O)N[C@@H](CCCCN)C(=O)N[C@@H](C(N)=O)c1ccc(OCc2ccc(C(F)(F)F)cc2)cc1`, the midpoint of inhibition in assay [1], the IC50, lay at 1.6 µM.
The same measure, in the same setting: under `CN(Cc1ccccc1)C(=O)N[C@@H](CCCCN)C(=O)N[C@@H](CCCCN)C(=O)N[C@@H](CCCNC(=N)N)C(N)=O` stands 7.4 µM; under `N=C(N)NCCC[C@H](NC(=O)c1cccs1)C(=O)N[C@@H](CCCCN)C(=O)N[C@H](C(N)=O)c1ccc(OCc2ccccc2C(F)(F)F)cc1`, 7.1 µM.
With `N=C(N)NCCC[C@H](NC(=O)[C@H](CCCCN)NC(=O)CNC(=O)Cc1ccccc1)C(=O)O` (PhAc-Gly-Lys-Arg-OH), in the assay on Zika virus [4], the inhibition amounted to 40%.
For the compound `N=C(N)NCCC[C@H](NC(=O)[C@H](CCCCN)NC(=O)[C@H](CCCCN)NC(=O)Cc1cccnc1)C(N)=O`, the IC50 in assay [1] was 4.49 µM.
Same read-out and setting: the same measure for `N=C(N)NCCC[C@H](NC(=O)c1cccs1)C(=O)N[C@@H](CCCCN)C(=O)NCc1ccc(OCc2ccc(C(F)(F)F)cc2)cc1`: 8.2 µM.
`CC(=O)N[C@H](C(=O)NCC(=O)N[C@@H](CCCCN)C(=O)N[C@@H](CCCNC(=N)N)C(=O)O)[C@@H](C)O` (Ac-TGKR-OH) showed an inhibition in the assay on Zika virus [4] of 40%.
For `N=C(N)NCCC[C@H](NC(=O)[C@H](CCN)NC(=O)[C@H](CCCCN)NC(=O)Cc1ccccc1)C(N)=O` (PhAc-Lys-[Dab]-Arg-NH2), the IC50 in assay [1] was determined as 0.45 µM.
Still for that read-out and setting: the same measure for `N=C(N)NCCC[C@H](NC(=O)c1cccs1)C(=O)N[C@@H](CCCCN)C(=O)N[C@H](C(N)=O)c1ccc(OCc2ccccc2)cc1`: 7.6 µM.
For `CC(=O)N[C@H](C(=O)NCC(=O)N[C@@H](CCCCN)C(=O)N[C@@H](CCCNC(=N)N)C(N)=O)[C@@H](C)O` (Ac-TGKR-NH2), the inhibition in the assay on Zika virus [4] stood at 40%.
The compound `CCOc1ccc([C@H](NC(=O)[C@H](CCCCN)NC(=O)[C@H](CCCNC(=N)N)NC(=O)c2cccs2)C(N)=O)cc1` had an IC50 in assay [1] of 17.9 µM.
On the same count and under the same terms, under `N=C(N)NCCC[C@H](NC(=O)c1cccs1)C(=O)N[C@@H](CCCCN)C(=O)N[C@H](C(=O)NCc1ccccc1)c1ccc(OCc2ccc(C(F)(F)F)cc2)cc1` stands 0.31 µM.
`NCCCC[C@H](NC(=O)CC1CCCCC1)C(=O)N[C@@H](CCCCN)C(=O)N[C@H](C(=O)NCc1ccccc1)c1ccc(OCc2ccc(C(F)(F)F)cc2)cc1` showed a concentration for half-maximal inhibition (IC50) in assay [1] of 0.15 µM.
The same measure, in the same setting: under `CN(Cc1ccccc1)C(=O)[C@H](CCCNC(=N)N)NC(=O)[C@H](CCCCN)NC(=O)[C@H](CCCCN)NC(=O)Cc1ccccc1` stands 70 µM; under `CN(C)CCOc1ccc([C@H](NC(=O)[C@H](CCCCN)NC(=O)[C@H](CCCNC(=N)N)NC(=O)c2cccs2)C(N)=O)cc1`, 5.5 µM; under `CN(C)Cc1ccc(CNC(=O)[C@H](CCCNC(=N)N)NC(=O)[C@H](CCCCN)NC(=O)[C@H](CCCCN)NC(=O)Cc2ccccc2)cc1`, 2.8 µM.
The same measure, in the same setting: under `CNC(=O)[C@@H](NC(=O)[C@H](CCCCN)NC(=O)[C@H](CCCCN)NC(=O)Cc1ccccc1)c1ccc(OCc2ccc(C(F)(F)F)cc2)cc1` stands 2.8 µM; under `NCCCC[C@H](NC(=O)Cc1ccccc1)C(=O)N[C@@H](CCCCN)C(=O)N[C@H](C(=O)NCC1CCCCC1)c1ccc(OCc2ccc(C(F)(F)F)cc2)cc1`, 0.08 µM.
Same read-out and setting: under `N=C(N)NCCC[C@H](NC(=O)[C@H](Cc1ccc(N)cc1)NC(=O)[C@H](CCCCN)NC(=O)Cc1ccccc1)C(N)=O` (PhAc-Lys-[Phe(4-NH2)]-Arg-NH2) stands greater than 100 µM.
Regarding `N=C(N)NCCC[C@H](NC(=O)[C@H](CCCN)NC(=O)[C@H](CCCCN)NC(=O)Cc1ccccc1)C(N)=O` (PhAc-Lys-[Orn]-Arg-NH2), in assay [1], the IC50 came out at 3.9 µM.
Still for that read-out and setting: the same measure for `NCCCC[C@H](NC(=O)Cc1ccccc1)C(=O)N[C@@H](CCCCN)C(=O)N[C@H](C(=O)NCc1ccc(OCc2ccc(C(F)(F)F)cc2)cc1)c1ccccc1`: 0.14 µM.
Still for that read-out and setting: under `NCCCC[C@H](NC(=O)Cc1ccccc1)C(=O)N[C@@H](CCCCN)C(=O)N[C@H](C(=O)NCc1ncco1)c1ccc(OCc2ccc(C(F)(F)F)cc2)cc1` stands 1.5 µM; under `CC(=O)N[C@@H](CCCCN)C(=O)N[C@@H](CCCCN)C(=O)N[C@@H](CCCNC(=N)N)C(N)=O` (Ac-Lys-Lys-Arg-NH2), 8.4 µM; under `N=C(N)NCCC[C@H](NC(=O)[C@H](CCCCN)NC(=O)[C@H](CCCCN)NC(=O)Cc1ccc(Cl)c(Cl)c1)C(N)=O`, 1.23 µM.
Consider `NCCCC[C@H](NC(=O)Cc1ccccc1)C(=O)N[C@@H](CCCCN)C(=O)N[C@H](C(=O)NCCc1ccccc1)c1ccc(OCc2ccc(C(F)(F)F)cc2)cc1`, for which the midpoint of inhibition in assay [1], the IC50, lay at 0.62 µM.
As for `N=C(N)NCCC[C@H](NC(=O)[C@H](CCCCN)NC(=O)[C@H](CCCCN)NC(=O)C1(c2ccccc2)CC1)C(N)=O`, in assay [1], the IC50 amounted to 10.1 µM.
On the same count and under the same terms, under `NCCCC[C@H](NC(=O)Cc1ccccc1)C(=O)N[C@@H](CCCCN)C(=O)N[C@H](C(=O)NCc1cccc(OCc2ccc(C(F)(F)F)cc2)c1)c1ccccc1` stands 0.24 µM.
In assay [1], `N=C(N)NCCC[C@H](NC(=O)[C@H](CCCCN)NC(=O)[C@H](CCCCN)NC(=O)Cc1ccncc1)C(N)=O` returned an IC50 of 5.2 µM.
On the same count and under the same terms, the same measure for `CC(NC(=O)[C@H](CCCCN)NC(=O)[C@H](CCCNC(=N)N)NC(=O)c1cccs1)c1ccc(OCc2ccc(C(F)(F)F)cc2)cc1` (mixture of isomers): 10.9 µM.
The compound `N=C(N)NCCC[C@H](NC(=O)[C@H](CCCCN)NC(=O)[C@H](CCCCN)NC(=O)Cc1ccccc1)C(=O)NCc1ccccc1` (PhAc-Lys-Lys-Arg-NHBn) had an IC50 in assay [1] of 7.9 µM.
`N=C(N)NCCC[C@H](NC(=O)[C@H](CCCCN)NC(=O)[C@H](Cc1ccccc1)NC(=O)Cc1ccccc1)C(N)=O` (PhAc-Phe-Lys-Arg-NH2) returned an IC50 in assay [1] of 35 µM.
In assay [1], `NCCCC[C@H](NC(=O)Cc1ccccc1)C(=O)N[C@@H](CCCCN)C(=O)N[C@H](C(=O)NC1Cc2ccccc2C1)c1ccc(OCc2ccc(C(F)(F)F)cc2)cc1` yielded an IC50 of 2 µM.
In turn, `N=C(N)NCCC[C@H](NC(=O)[C@H](CCCNC(N)=O)NC(=O)[C@H](CCCCN)NC(=O)Cc1ccccc1)C(N)=O` (PhAc-Lys-[Cit]-Arg-NH2) came in with an IC50 in assay [1] greater than 100 µM.
Same read-out and setting: the same measure for `N=C(N)NCCC[C@H](NC(=O)c1cccs1)C(=O)N[C@@H](CCCCN)C(=O)NC(C(N)=O)c1cccc(OCc2ccc(C(F)(F)F)cc2)c1` (mixture of isomers): 6.4 µM; for `NCCCC[C@H](NC(=O)Cc1ccccc1)C(=O)N[C@@H](CCCCN)C(=O)N[C@H](C(=O)Nc1ccccc1)c1ccc(OCc2ccc(C(F)(F)F)cc2)cc1`: 3.4 µM; for `N=C(N)NCCC[C@H](NC(=O)[C@H](CCCCN)NC(=O)[C@H](CCCCN)NC(=O)Cc1ccccc1)C(=O)NCCc1ccccc1` (PhAc-Lys-Lys-Arg-NHPhenethyl): 11.6 µM.
Still for that read-out and setting: under `N=C(N)NCCC[C@H](NC(=O)[C@H](CCCCN)NC(=O)[C@H](Cc1ccc(CN)cc1)NC(=O)Cc1ccccc1)C(N)=O` (PhAc-[Phe(4-CH2NH2)]-Lys-Arg-NH2) stands 8.57 µM; under `NCCCC[C@H](NC(=O)Cc1ccccc1)C(=O)N[C@@H](CCCCN)C(=O)N[C@H](C(=O)NCc1ccccc1)c1ccccc1`, 0.55 µM; under `N=C(N)NCCC[C@H](NC(=O)c1cccs1)C(=O)N[C@@H](CCCCN)C(=O)N[C@H](C(N)=O)c1ccc(O)cc1`, 10.2 µM.
The same measure, in the same setting: the same measure for `N=C(N)NCCC[C@H](NC(=O)c1cccs1)C(=O)N[C@@H](CCCCN)C(=O)N[C@H](C(N)=O)c1ccc(OCc2ncco2)cc1`: greater than 100 µM.
`N=C(N)NCCC[C@H](NC(=O)[C@H](CC1CCNCC1)NC(=O)[C@H](CCCCN)NC(=O)Cc1ccccc1)C(N)=O` showed an IC50 in assay [1] of 12.2 µM.
Same read-out and setting: the same measure for `N=C(N)NCCC[C@H](NC(=O)c1cccs1)C(=O)N[C@@H](CCCCN)C(=O)N[C@H](C(N)=O)c1ccc(OCc2ccc3[nH]ncc3c2)cc1`: 5.3 µM.
